From patent US20260083750A1, “SMALL MOLECULE INHIBITORS OF KRAS PROTEINS” (MERCK SHARP & DOHME LLC, priority 2022, published 2026)

Key:
[1] = biological target: T1, KRAS G12C (amino acids 1-169) (Homo sapiens, UniProt P01116, G12C); test: SOS-catalyzed nucleotide exchange assay (Procedure B, BODIPY FL GDP displacement); format: biochemical; conditions: Procedure B (Example Nos. 18, 21, 23, 33-34); 1 hour incubation, SOS1 + GMPPNP; read-out: KRAS G12C GNE IC50
T1 construct: made in house; host or cells: E. coli
Description: (§1) Procedure for SOS-Catalyzed Nucleotide Exchange Assay for KRAS-G12C/D/V (Procedure B)
(§2) Recombinant KRAS G12C (amino acids 1-169, SEQ ID NO:8), KRAS G12D (amino acids 1-169, SEQ ID NO:9), KRAS G12V (amino acids 1-169, SEQ ID NO:10) and SOS1 (amino acids 564-1049, SEQ ID NO:11) proteins were expressed in E. coli and purified by affinity chromatography. To prepare each BODIPY™ FL GDP-bound KRAS mutant protein, 50 μM KRAS mutant proteins were incubated with 0.5 mM BODIPY™ FL GDP (Invitrogen, G22360) in a loading buffer (20 mM Tris-HCl pH 7.5, 50 mM NaCl, 1 mM DTT and 2.5 mM EDTA) for 1 hour on ice. After the incubation, MgCl2 was added to a final concentration of 10 mM, followed by an incubation at room temperature for 30 minutes. The mixtures were allowed to pass through a NAP-5 column to remove free nucleotides and purified BODIPY™ FL GDP-bound KRAS G12C, G12D and G12V proteins were used for compound evaluation.
(§3) The inhibitory activity of compounds on recombinant KRAS mutants is measured by the displacement of the bound BODIPY™ GDP. Specifically, 2.5 nM of each BODIPY™ FL GDP-bound KRAS mutant complex was incubated with various concentrations of compound in a reaction buffer (20 mM Tris-HCl pH 7.5, 100 mM NaCl, 1 mM MgCl2, 2 mM DTT, 0.1% Tween 20) at 25° C. for 1 hour. After the incubation, recombinant SOS1 and GMPPNP (Jena Bioscience GmbH, NU-401) were added and incubated at room temperature for 30 minutes to proceed SOS1-dependent GDP-GTP exchange reaction on KRAS mutants. Displacement of BODIPY™ FL GDP by Guanosine-5′-[(β,γ)-imido]triphosphate, Tetralithium salt (GMPPNP) was measured by calculating the ratio of fluorescence intensities of BODIPY™ FL before and after the exchange reaction. […] Dose response curves were analyzed using a 4-parameter logistic model to calculate IC50 values.
(§4) For Example Nos. 1-17, 19-20, 22, 24-32, and 35-53 nucleotide exchange assays for KRAS G12D, G12C, G12V, and G13D were performed according to Procedure A. For Example Nos. 18, 21, 23, and 33-34, nucleotide exchange assays for KRAS G12D, G12C, and G12V were performed according to Procedure B.

[2] = biological target: T2, KRAS G12V (amino acids 1-169) (Homo sapiens, UniProt P01116, G12V); test: as above; format: biochemical; conditions: Procedure B (Example Nos. 18, 21, 23, 33-34); 1 hour incubation, SOS1 + GMPPNP; read-out: KRAS G12V GNE IC50
T2 construct: made in house; host or cells: E. coli
Description: as §1, §2, §3, §4

[3] = biological target: T3, KRAS G12D (amino acids 1-169) (Homo sapiens, UniProt P01116, G12D); test: as above; format: biochemical; conditions: Procedure B (Example Nos. 18, 21, 23, 33-34); 1 hour incubation, SOS1 + GMPPNP; read-out: KRAS G12D GNE IC50
T3 construct: made in house; host or cells: E. coli
Description: as §1, §2, §3, §4

[4] = biological target: T4, KRAS-G12C (C51S/C80L/C118S) (Homo sapiens, UniProt P01116, C118S/C51S/C80L/G12C); test: SOS-catalyzed nucleotide exchange assay (Procedure A, TR-FRET); format: biochemical; conditions: 60 min preincubation, SOS + GTP, read-out: KRAS G12C GNE IC50
T4 construct: N-terminal biotin-acceptor peptide […]
Procedure, shortened: (§5)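 Preformed biotinylated RAS–Bodipy-GDP/Tb-streptavidin complex preincubated with compound 60 min at room temperature, then SOS plus GTP (3 mM final) added. Exchange times: G13D 30 min, G12C/D 60 min, G12V 90 min. Final RAS/SOS: G12C 3 nM/40 nM, G12D 1 nM/40 nM, G12V 1.25 nM/160 nM, G13D 1.25 nM/0 nM. TR-FRET 520/495 ratio, four-parameter fit.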

KRAS-G12V = biological target: T5, KRAS-G12V (Homo sapiens, UniProt P01116, G12V); test: as above; format: biochemical; conditions: 60 min preincubation, SOS + GTP, read-out: KRAS G12V GNE IC50
T5 construct: N-terminal biotin-acceptor peptide […]
Procedure, shortened: as §5

KRAS-G12D = biological target: T6, KRAS-G12D (Homo sapiens, UniProt P01116, G12D); test: as above; format: biochemical; conditions: 60 min preincubation, SOS + GTP, read-out: KRAS G12D GNE IC50
T6 construct: N-terminal biotin-acceptor peptide […]
Procedure, shortened: as §5

KRAS-G13D = biological target: T7, KRAS-G13D (Homo sapiens, UniProt P01116, G13D); test: as above; format: biochemical; conditions: 60 min preincubation, GTP, read-out: KRAS G13D GNE IC50
T7 construct: N-terminal biotin-acceptor peptide […]
Procedure, shortened: as §5

NRAS = NRAS (Homo sapiens, UniProt P01111); test: as above; format: biochemical; conditions: 60 min preincubation, SOS + GTP, read-out: NRAS GNE IC50
Procedure, shortened: (§6)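 Biotinylated WT-sequence HRAS or NRAS (1.25 nM final) loaded with Bodipy-GDP plus Tb-streptavidin, preincubated 60 min with compound (10-point, 3-fold). Exchange started with human SOS (40 nM) and 3 mM GTP, 60 min at room temperature, pH 7.5 Mg buffer. TR-FRET 520/495 ratio normalised to DMSO and saturating inhibitor, four-parameter fit.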

HRAS = HRAS (Homo sapiens, UniProt P01112); test: as above; format: biochemical; conditions: 60 min preincubation, SOS + GTP, read-out: HRAS GNE IC50
Procedure, shortened: as §6

[5] = system: SW620 cells (homozygous KRAS-G12V activating mutation); test: Cellular phospho-ERK assay in G12V cell line; format: cell-based; conditions: Homo sapiens, SW-620, 2 hours compound incubation, ratio of p-ERK vs. total ERK, read-out: SW620 pERK IC50
Procedure, shortened: (§7)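 Cells (10,000-15,000/well) were seeded overnight, then treated for 2 h at 37 °C with a 10-point 1:3 titration from 30 μM final. Lysates were assayed by AlphaLISA SureFire Ultra multiplex, with the p-ERK/total-ERK ratio as read-out; IC50 came from a 4-parameter logistic fit.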

[6] = system: PANC08.13 cells (homozygous KRAS-G12D activating mutation); test: Cellular phospho-ERK assay in G12D cell line; format: cell-based; conditions: Homo sapiens, PANC-08-13, 2 hours compound incubation, ratio of p-ERK vs. total ERK, read-out: PANC 0813 pERK IC50
Procedure, shortened: as §7

T5 sequence (P01116 with tags, fused parts or gaps isoform P01116-2 G12V): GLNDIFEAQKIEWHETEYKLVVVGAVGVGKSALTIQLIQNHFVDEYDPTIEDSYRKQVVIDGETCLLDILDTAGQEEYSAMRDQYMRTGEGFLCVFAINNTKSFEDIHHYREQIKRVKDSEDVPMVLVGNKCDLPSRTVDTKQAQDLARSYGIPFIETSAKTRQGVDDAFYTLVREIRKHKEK
NRAS, sequence (P01111 with tags, fused parts or gaps): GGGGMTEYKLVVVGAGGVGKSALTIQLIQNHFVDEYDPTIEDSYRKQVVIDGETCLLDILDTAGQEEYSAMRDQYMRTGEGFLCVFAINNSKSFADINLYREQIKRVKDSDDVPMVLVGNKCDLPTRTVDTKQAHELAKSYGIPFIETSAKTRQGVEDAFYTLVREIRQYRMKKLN
T2 sequence (P01116 with tags, fused parts or gaps isoform P01116-2 G12V): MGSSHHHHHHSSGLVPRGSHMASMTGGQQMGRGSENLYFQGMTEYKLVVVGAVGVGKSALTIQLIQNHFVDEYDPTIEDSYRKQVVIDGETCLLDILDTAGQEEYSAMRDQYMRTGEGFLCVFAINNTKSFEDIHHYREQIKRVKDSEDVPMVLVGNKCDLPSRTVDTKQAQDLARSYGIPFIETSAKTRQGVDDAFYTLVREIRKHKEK
T1 sequence (P01116 with tags, fused parts or gaps isoform P01116-2 G12C): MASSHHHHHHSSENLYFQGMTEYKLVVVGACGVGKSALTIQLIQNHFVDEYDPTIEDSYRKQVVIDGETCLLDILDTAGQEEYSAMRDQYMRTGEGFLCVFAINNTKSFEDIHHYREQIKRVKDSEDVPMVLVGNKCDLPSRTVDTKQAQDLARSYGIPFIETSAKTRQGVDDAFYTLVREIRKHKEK
T3 sequence (P01116 with tags, fused parts or gaps isoform P01116-2 G12D): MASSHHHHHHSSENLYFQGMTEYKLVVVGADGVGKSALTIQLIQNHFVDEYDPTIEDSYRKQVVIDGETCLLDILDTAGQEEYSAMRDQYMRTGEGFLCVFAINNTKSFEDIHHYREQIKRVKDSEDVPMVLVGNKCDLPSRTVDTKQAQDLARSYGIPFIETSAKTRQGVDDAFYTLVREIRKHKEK
T7 sequence (P01116 with tags, fused parts or gaps isoform P01116-2 G13D): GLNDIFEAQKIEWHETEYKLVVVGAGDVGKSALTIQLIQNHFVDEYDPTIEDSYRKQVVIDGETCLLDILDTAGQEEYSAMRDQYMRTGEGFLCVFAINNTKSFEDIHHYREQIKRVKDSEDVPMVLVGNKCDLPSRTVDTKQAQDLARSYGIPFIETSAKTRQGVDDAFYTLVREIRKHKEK
T4 sequence (P01116 with tags, fused parts or gaps isoform P01116-2 G12C/C51S/C80L/C118S): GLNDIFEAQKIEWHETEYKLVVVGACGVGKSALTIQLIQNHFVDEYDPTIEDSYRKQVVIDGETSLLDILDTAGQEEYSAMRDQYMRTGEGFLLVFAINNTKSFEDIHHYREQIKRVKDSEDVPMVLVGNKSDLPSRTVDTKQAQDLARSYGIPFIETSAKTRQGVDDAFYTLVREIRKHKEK
HRAS, sequence (P01112 with tags, fused parts or gaps): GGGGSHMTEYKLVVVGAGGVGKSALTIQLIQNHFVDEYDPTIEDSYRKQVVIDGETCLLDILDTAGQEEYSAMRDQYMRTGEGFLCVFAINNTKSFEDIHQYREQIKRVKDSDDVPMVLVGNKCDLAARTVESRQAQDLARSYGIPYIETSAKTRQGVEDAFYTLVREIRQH
T6 sequence (P01116 with tags, fused parts or gaps isoform P01116-2 G12D): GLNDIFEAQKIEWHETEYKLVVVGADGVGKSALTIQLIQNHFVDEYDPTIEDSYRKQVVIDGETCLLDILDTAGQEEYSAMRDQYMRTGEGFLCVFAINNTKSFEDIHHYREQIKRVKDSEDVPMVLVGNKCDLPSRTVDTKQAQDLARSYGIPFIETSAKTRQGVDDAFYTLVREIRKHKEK

| IC50 [1] | IC50 [2] | IC50 [3] | SMILES | IC50 [4] | IC50 (KRAS-G12V) | IC50 (KRAS-G12D) | IC50 (KRAS-G13D) | IC50 (NRAS) | IC50 (HRAS) | IC50 [5] | IC50 [6] |
| --- | --- | --- | --- | --- | --- | --- | --- | --- | --- | --- | --- |
| 1020 nM | 2230 nM | 4880 nM | N#Cc1c(N)sc2c(F)ccc(-c3c(Cl)cc4c(N5CCCOCC5)nc(OC[C@]5(CO)CC5(F)F)nc4c3F)c12 (single isomer, unassigned) [Ex. 33] |  |  |  |  |  |  |  |  |
| 33.4 nM | 76.9 nM | 140 nM | N#Cc1c(N)sc2c(F)cc(F)c(-c3ncc4c(N5CCCOCC5)nc(OC[C@@]56CCCN5C[C@H](F)C6)nc4c3F)c12 [Ex. 23, 2-amino-5,7-difluoro-4-(8-fluoro-2-(((2R,7aS)-2-fluorotetrahydro-1H-pyrrolizin-7a(5H)-yl)methoxy)-4-(1,4-oxazepan-4-yl)pyrido[4,3-d]pyrimidin-7-yl)benzo[b]thiophene-3-carbonitrile] |  |  |  |  |  |  |  |  |
| 1.8 nM | 1.67 nM | 3.43 nM | N#Cc1c(N)sc2c(F)ccc(-c3c(C(F)(F)F)cc4c(N5CCCOCC5)nc(OC[C@@]56CCCN5C[C@H](F)C6)nc4c3F)c12 [Ex. 34, 2-amino-7-fluoro-4-(8-fluoro-2-(((2R,7aS)-2-fluorotetrahydro-1H-pyrrolizin-7a(5H)-yl)methoxy)-4-(1,4-oxazepan-4-yl)-6-(trifluoromethyl)quinazolin-7-yl)benzo[b]thiophene-3-carbonitrile] |  |  |  |  |  |  |  |  |
| 20.8 nM | 63.6 nM | 136 nM | C[C@H]1CCOCCN1c1nc(OC[C@@]23CCCN2C[C@H](F)C3)nc2c(F)c(-c3ccc(F)c4sc(N)c(C#N)c34)ncc12 [compound 21, 2-amino-7-fluoro-4-(8-fluoro-2-(((2R,7aS)-2-fluorotetrahydro-1H-pyrrolizin-7a(5H)-yl)methoxy)-4-((S)-5-methyl-1,4-oxazepan-4-yl)pyrido[4,3-d]pyrimidin-7-yl)benzo[b]thiophene-3-carbonitrile] |  |  |  |  |  |  |  |  |
|  |  |  | CC(C)(C)NC[C@@]1(COc2nc(N3CCCOCC3)c3cc(Cl)c(-c4ccc(F)c5sc(N)c(C#N)c45)c(F)c3n2)CC1(F)F [compound 25, 2-amino-4-(2-(((R)-1-((tert-butylamino)methyl)-2,2-difluorocyclopropyl)methoxy)-6-chloro-8-fluoro-4-(1,4-oxazepan-4-yl)quinazolin-7-yl)-7-fluorobenzo[b]thiophene-3-carbonitrile] | 28.6 nM | 17.7 nM | 247 nM | 52.9 nM | > 11100 nM | > 11100 nM | 407 nM | 1310 nM |
|  |  |  | CC(C)NC[C@@]1(COc2nc(N3CCCOCC3)c3cc(Cl)c(-c4ccc(F)c5sc(N)c(C#N)c45)c(F)c3n2)CC1(F)F [compound 26, 2-amino-4-(6-chloro-2-(((R)-2,2-difluoro-1-((isopropylamino)meth-yl)cyclopropyl)meth-oxy)-8-fluoro-4-(1,4-oxazepan-4-yl)quinazolin-7-yl)-7-fluorobenzo[b]thiophene-3-carbonitrile] | 54.9 nM | 22.6 nM | 177 nM | 59.4 nM | > 11100 nM | > 11100 nM | 357 nM | 992 nM |
|  |  |  | CC1(NC[C@@]2(COc3nc(N4CCCOCC4)c4cc(Cl)c(-c5ccc(F)c6sc(N)c(C#N)c56)c(F)c4n3)CC2(F)F)CCC1 [compound 28, 2-amino-4-(6-chloro-2-(((R)-2,2-difluoro-1-(((1-methylcyclobutyl)ami-no)methyl)cyclopropyl)methoxy)-8-fluoro-4-(1,4-oxazepan-4-yl)quinazolin-7-yl)-7-fluorobenzo[b]thiophene-3-carbonitrile] | 78.2 nM | 99.5 nM | 1850 nM | 255 nM | > 11100 nM | > 11100 nM | 867 nM | 2420 nM |
|  |  |  | Cc1cc(N)nc(-c2c(Cl)cc3c(N4CCCOCC4)nc(OC[C@@]45CCCN4C[C@H](F)C5)nc3c2F)c1C(F)(F)F [compound 40, 6-(6-chloro-8-fluoro-2-(((2R,7aS)-2-fluorotetrahydro-1H-pyrrolizin-7a(5H)-yl)methoxy)-4-(1,4-oxazepan-4-yl)quinazolin-7-yl)-4-methyl-5-(trifluoromethyl)pyridin-2-amine] | 83.3 nM | 78.2 nM | 351 nM | 204 nM | > 11100 nM | > 11100 nM | 628 nM | 807 nM |
|  |  |  | Cc1cc(N)nc(-c2c(Cl)cc3c(N4CCCOCCC4)nc(OC[C@@]45CCCN4C[C@H](F)C5)nc3c2F)c1C(F)(F)F [compound 41, 6-(6-chloro-8-fluoro-2-(((2R,7aS)-2-fluorotetrahydro-1H-pyrrolizin-7a(5H)-yl)methoxy)-4-(1,5-oxazocan-5-yl)quinazolin-7-yl)-4-methyl-5-(trifluoromethyl)pyridin-2-amine] | 56.5 nM | 46.4 nM | 125 nM | 75.5 nM | > 11100 nM | > 11100 nM | 512 nM | 348 nM |

| SMILES | IC50 [1] | IC50 [2] | IC50 [3] | IC50 [4] | IC50 (KRAS-G12V) | IC50 (KRAS-G12D) | IC50 (KRAS-G13D) | IC50 (NRAS) | IC50 (HRAS) | IC50 [5] | IC50 [6] |
| --- | --- | --- | --- | --- | --- | --- | --- | --- | --- | --- | --- |
| N#Cc1c(N)sc2c(F)ccc(-c3c(Cl)cc4c(N5CCCOCC5)nc(OC[C@@]56CCCN5C[C@H](F)C6)nc4c3F)c12 (single isomer, unassigned) [Ex. 18] | 2.81 nM | 2.91 nM | 5.34 nM |  |  |  |  |  |  |  |  |
